Results reported in ChEMBL document CHEMBL1201862, “PubChem BioAssay data set” (2004).
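Compound exposure: 48 hours, 5 concentrations, 96-well plates. Abbreviation: GI50, concentration required for 50% inhibition of growth.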 Activity calls are given as the source filed them. Rule as the data show it: active = GI50 up to about 1.1 µM and inactive = higher.

Legend:
Test in all cases: inhibition of tumour cell growth, NCI panel, 48 h
786-0 = tested on: 786-0
COLO 205 = tested on: COLO 205
UO-31 = tested on: UO-31
MOLT-4 = tested on: MOLT-4
PC-3 = tested on: PC-3
HL-60 = tested on: HL-60
UACC-257 = tested on: UACC-257
OVCAR-4 = tested on: OVCAR-4
RPMI-8226 = tested on: RPMI-8226
MDA-N = tested on: MDA-N
M14 = tested on: M14
NCI/ADR-RES = tested on: NCI/ADR-RES
HOP-92 = tested on: HOP-92
Malme-3M = tested on: Malme-3M
MDA-MB-435 = tested on: MDA-MB-435
NCI-H226 = tested on: NCI-H226
MDA-MB-231 = tested on: MDA-MB-231
A549 = tested on: A549
K562 = tested on: K562
SK-OV-3 = tested on: SK-OV-3

SMILES | GI50 (786-0) | GI50 (COLO 205) | GI50 (UO-31) | GI50 (MOLT-4) | GI50 (PC-3) | GI50 (HL-60) | GI50 (UACC-257) | GI50 (OVCAR-4) | GI50 (RPMI-8226) | GI50 (MDA-N) | GI50 (M14) | GI50 (NCI/ADR-RES) | GI50 (HOP-92) | GI50 (Malme-3M) | GI50 (MDA-MB-435) | GI50 (NCI-H226) | GI50 (MDA-MB-231) | GI50 (A549) | GI50 (K562) | GI50 (SK-OV-3)
CCNC(=S)NNC(=O)CSc1nc2ccc(I)cc2c(=O)n1Cc1ccccc1 | 29.2 µM (inactive) | 25.7 µM (inactive) | 0.0299 µM (active) | 7.48 µM (inactive) | 18.5 µM (inactive) | 1.81 µM (inactive) | 17.7 µM (inactive) | 10.8 µM (inactive) | 14.8 µM (inactive) | 13.5 µM (inactive) | 38.4 µM (inactive) | 22 µM (inactive) | 17.3 µM (inactive) | 23.9 µM (inactive) | 12.9 µM (inactive) | 10.5 µM (inactive) | 41.5 µM (inactive) | 25.5 µM (inactive) | 10.6 µM (inactive) | 35 µM (inactive)
O=C1/C(=C/c2ccc(O)cc2)CC/C1=C\c1ccc(O)cc1 | > 41 µM (inactive) | > 100 µM (inactive) | 51.2 µM (inactive) | 7.14 µM (inactive) | 59.6 µM (inactive) | 0.458 µM (active) | > 100 µM (inactive) | > 64.3 µM (inactive) | 49.3 µM (inactive) | > 100 µM (inactive) | > 100 µM (inactive) | 28.3 µM (inactive) | > 68.9 µM (inactive) | > 72.6 µM (inactive) | > 100 µM (inactive) | > 100 µM (inactive) | > 100 µM (inactive) | > 95.1 µM (inactive) | > 100 µM (inactive) | > 100 µM (inactive)
